Data as given in publication PMC8245078, “Development of novel benzofuran-isatin conjugates as potential antiproliferative agents with apoptosis inducing mechanism in Colon cancer” (Journal of Enzyme Inhibition and Medicinal Chemistry, 2021).
Read-outs that look alike come from different tables or passages of the source.

Experiments:
Experiment in all cases: NCI single dose screening (10 µM)
Assay type in all cases: cell-based
CCRF-CEM = conditions: Homo sapiens, Leukaemia, single dose 10^−5 M, read-out: GI% (cell growth inhibition percentage)
MOLT-4 = conditions: Homo sapiens; MOLT-4, Leukaemia, single dose 10^−5 M; read-out: GI% (cell growth inhibition percentage)
HL-60(TB) = conditions: Homo sapiens
SR = conditions: Homo sapiens, Leukaemia, single dose 10^−5 M, read-out: GI% (cell growth inhibition percentage)
EKVX = conditions: Homo sapiens, Non-small cell lung cancer, single dose 10^−5 M, read-out: GI% (cell growth inhibition percentage)
NCI-H23 = conditions: Homo sapiens; NCI-H23, Non-small cell lung cancer, single dose 10^−5 M; read-out: GI% (cell growth inhibition percentage)
HCC-2998 = conditions: Homo sapiens; HCC-2998, Colon cancer, single dose 10^−5 M; read-out: GI% (cell growth inhibition percentage)
SW-620 = conditions: Homo sapiens; SW-620, Colon cancer, single dose 10^−5 M; read-out: GI% (cell growth inhibition percentage)
HT-29 = conditions: Homo sapiens; HT-29, Colon cancer, single dose 10^−5 M; read-out: GI% (cell growth inhibition percentage)
SF-295 = conditions: Homo sapiens; SF-295, CNS cancer, single dose 10^−5 M; read-out: GI% (cell growth inhibition percentage)
U251 = conditions: Homo sapiens, U-251; U251, CNS cancer, single dose 10^−5 M; read-out: GI% (cell growth inhibition percentage)
SNB-19 = conditions: Homo sapiens; SNB-19, CNS cancer, single dose 10^−5 M; read-out: GI% (cell growth inhibition percentage)
MALME-3M = conditions: Homo sapiens; MALME-3M, Melanoma, single dose 10^−5 M; read-out: GI% (cell growth inhibition percentage)
M14 = conditions: Homo sapiens; M14, Melanoma, single dose 10^−5 M; read-out: GI% (cell growth inhibition percentage)
UACC-257 = conditions: Homo sapiens; UACC-257, Melanoma, single dose 10^−5 M; read-out: GI% (cell growth inhibition percentage)
UACC-62 = conditions: Homo sapiens; UACC-62, Melanoma, single dose 10^−5 M; read-out: GI% (cell growth inhibition percentage)
SK-MEL-28 = conditions: Homo sapiens; SK-MEL-28, Melanoma, single dose 10^−5 M; read-out: GI% (cell growth inhibition percentage)
IGROV1 = conditions: Homo sapiens, IGROV-1; IGROV1, Ovarian cancer, single dose 10^−5 M; read-out: GI% (cell growth inhibition percentage)
OVCAR-8 = conditions: Homo sapiens; OVCAR-8, Ovarian cancer, single dose 10^−5 M; read-out: GI% (cell growth inhibition percentage)
OVCAR-5 = conditions: Homo sapiens; OVCAR-5, Ovarian cancer, single dose 10^−5 M; read-out: GI% (cell growth inhibition percentage)
786-0 = conditions: Homo sapiens; 786-0, Renal cancer, single dose 10^−5 M; read-out: GI% (cell growth inhibition percentage)
CAKI-1 = conditions: Homo sapiens; CAKI-1, Renal cancer, single dose 10^−5 M; read-out: GI% (cell growth inhibition percentage)
ACHN = conditions: Homo sapiens, Renal cancer, single dose 10^−5 M, read-out: GI% (cell growth inhibition percentage)
SN12C = conditions: Homo sapiens, Renal cancer, single dose 10^−5 M, read-out: GI% (cell growth inhibition percentage)
RXF 393 = conditions: Homo sapiens; RXF 393, Renal cancer, single dose 10^−5 M; read-out: GI% (cell growth inhibition percentage)
UO-31 = conditions: Homo sapiens; UO-31, Renal cancer, single dose 10^−5 M; read-out: GI% (cell growth inhibition percentage)
TK-10 = conditions: Homo sapiens; TK-10, Renal cancer, single dose 10^−5 M; read-out: GI% (cell growth inhibition percentage)
DU-145 = conditions: Homo sapiens; DU-145, Prostate cancer, single dose 10^−5 M; read-out: GI% (cell growth inhibition percentage)
MCF7 = conditions: Homo sapiens; MCF7, Breast cancer, single dose 10^−5 M; read-out: GI% (cell growth inhibition percentage)
BT-549 = conditions: Homo sapiens; BT-549, Breast cancer, single dose 10^−5 M; read-out: GI% (cell growth inhibition percentage)
HS 578 T = conditions: Homo sapiens; HS 578 T, Breast cancer, single dose 10^−5 M; read-out: GI% (cell growth inhibition percentage)
T-47D = conditions: Homo sapiens, T47D; T-47D, Breast cancer, single dose 10^−5 M; read-out: GI% (cell growth inhibition percentage)

Compound	inhibition at 10 µM (CCRF-CEM) [%]	inhibition at 10 µM (MOLT-4) [%]	inhibition at 10 µM (SR) [%]	inhibition at 10 µM (EKVX) [%]	inhibition at 10 µM (NCI-H23) [%]	inhibition at 10 µM (HCC-2998) [%]	inhibition at 10 µM (SW-620) [%]	inhibition at 10 µM (HT-29) [%]	inhibition at 10 µM (SF-295) [%]	inhibition at 10 µM (U251) [%]	inhibition at 10 µM (SNB-19) [%]	inhibition at 10 µM (MALME-3M) [%]	inhibition at 10 µM (M14) [%]	inhibition at 10 µM (UACC-257) [%]	inhibition at 10 µM (UACC-62) [%]	inhibition at 10 µM (SK-MEL-28) [%]	inhibition at 10 µM (IGROV1) [%]	inhibition at 10 µM (OVCAR-8) [%]	inhibition at 10 µM (OVCAR-5) [%]	inhibition at 10 µM (786-0) [%]	also measured
COc1ccc2c(c1)/C(=N/NC(=O)c1oc3ccccc3c1C)C(=O)N2 [Compound 5d]	42.9	49.1	56.5	62.7	89.3	56.5	64.8	72.7	95	98	57.3	129	71.3	50	65.7	84.2	93.7	62.2	52.3	167	inhibition at 10 µM (HL-60(TB); HL-60, read-out: GI% (cell growth inhibition percentage)): 46.1%; inhibition at 10 µM (CAKI-1): 152%; inhibition at 10 µM (ACHN): 151%; inhibition at 10 µM (SN12C): 65.1%; inhibition at 10 µM (RXF 393): 136%; inhibition at 10 µM (UO-31): 155%; inhibition at 10 µM (TK-10): 194%; inhibition at 10 µM (DU-145): 82.4%; inhibition at 10 µM (MCF7): 77.1%; inhibition at 10 µM (BT-549): 29.9%; inhibition at 10 µM (HS 578 T): 74.5%; inhibition at 10 µM (T-47D): 139%
Cc1c(C(=O)N/N=C2\C(=O)Nc3ccc(F)cc32)oc2ccccc12 [Compound 5b]	< 10	< 10	< 10	29.6	< 10	< 10	< 10	< 10	< 10	< 10	< 10	12.4	< 10	< 10	10.9	< 10	33.7	< 10	< 10	< 10	inhibition at 10 µM (HL-60(TB); HL-60(TB), Leukaemia, single dose 10^−5 M, read-out: GI% (cell growth inhibition percentage)): < 10%; inhibition at 10 µM (CAKI-1): 19.5%; inhibition at 10 µM (ACHN): < 10%; inhibition at 10 µM (SN12C): < 10%; inhibition at 10 µM (RXF 393): < 10%; inhibition at 10 µM (UO-31): 26.7%; inhibition at 10 µM (TK-10): < 10%; inhibition at 10 µM (DU-145): < 10%; inhibition at 10 µM (MCF7): 19%; inhibition at 10 µM (BT-549): < 10%; inhibition at 10 µM (HS 578 T): < 10%; inhibition at 10 µM (T-47D): < 10%
